The source made the active and inactive calls. The rule behind the calls is not given here.
Tests used:
[1] = molecular target: 5-hydroxytryptamine receptor 7 (Rattus norvegicus, UniProt P32305); experiment: Binding affinity to the rat 5-hydroxytryptamine 7 receptor
[2] = molecular target: T1, 5-hydroxytryptamine receptor 1A (Rattus norvegicus, UniProt P19327); experiment: Binding affinity to the rat 5-hydroxytryptamine 1A receptor
T1 sequence (P19327 whole entry): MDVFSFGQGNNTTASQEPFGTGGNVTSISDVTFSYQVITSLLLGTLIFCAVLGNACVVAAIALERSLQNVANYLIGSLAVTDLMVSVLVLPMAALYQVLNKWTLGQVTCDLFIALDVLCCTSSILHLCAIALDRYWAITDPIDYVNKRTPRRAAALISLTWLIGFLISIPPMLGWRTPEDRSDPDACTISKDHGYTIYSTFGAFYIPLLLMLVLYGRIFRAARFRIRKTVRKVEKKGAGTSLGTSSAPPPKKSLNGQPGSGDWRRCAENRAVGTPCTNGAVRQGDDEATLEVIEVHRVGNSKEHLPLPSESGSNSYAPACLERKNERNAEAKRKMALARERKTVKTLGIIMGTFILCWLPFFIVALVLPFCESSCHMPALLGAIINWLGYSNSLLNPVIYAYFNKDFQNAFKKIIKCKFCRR

[3] = molecular target: 5-hydroxytryptamine receptor 7 (Rattus norvegicus) (UniProt P32305); conditions: Ileum
5-hydroxytryptamine receptor 7 (Rattus norvegicus), sequence (P32305 whole entry): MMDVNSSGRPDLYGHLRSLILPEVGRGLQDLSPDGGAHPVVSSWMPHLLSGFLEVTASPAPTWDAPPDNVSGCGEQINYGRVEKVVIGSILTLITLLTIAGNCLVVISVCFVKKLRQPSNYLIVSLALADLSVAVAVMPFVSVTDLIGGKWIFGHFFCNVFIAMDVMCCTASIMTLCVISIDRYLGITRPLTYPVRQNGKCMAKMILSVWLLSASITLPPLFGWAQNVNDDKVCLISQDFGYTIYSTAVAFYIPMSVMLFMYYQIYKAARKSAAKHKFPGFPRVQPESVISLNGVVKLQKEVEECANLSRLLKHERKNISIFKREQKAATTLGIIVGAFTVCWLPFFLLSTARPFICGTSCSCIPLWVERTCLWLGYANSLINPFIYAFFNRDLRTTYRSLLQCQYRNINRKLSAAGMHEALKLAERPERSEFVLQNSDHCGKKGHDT
Description: Maximal relaxation effect induced by 3 uM compound on substance P stimulated guinea pig ileum with 5-hydroxytryptamine receptor desensitization

[4] = tested on: 5-hydroxytryptamine receptor 7 (Cavia porcellus); experiment: Maximal relaxation effect induced by 3 uM compound on substance P stimulated guinea pig ileum with 5-hydroxytryptamine 7 receptor desensitization
[5] = molecular target: 5-hydroxytryptamine receptor 2A (Rattus norvegicus, UniProt P14842); experiment: Binding affinity of compound was tested for 5-hydroxytryptamine 2A receptor
5-hydroxytryptamine receptor 2A, sequence (P14842 whole entry): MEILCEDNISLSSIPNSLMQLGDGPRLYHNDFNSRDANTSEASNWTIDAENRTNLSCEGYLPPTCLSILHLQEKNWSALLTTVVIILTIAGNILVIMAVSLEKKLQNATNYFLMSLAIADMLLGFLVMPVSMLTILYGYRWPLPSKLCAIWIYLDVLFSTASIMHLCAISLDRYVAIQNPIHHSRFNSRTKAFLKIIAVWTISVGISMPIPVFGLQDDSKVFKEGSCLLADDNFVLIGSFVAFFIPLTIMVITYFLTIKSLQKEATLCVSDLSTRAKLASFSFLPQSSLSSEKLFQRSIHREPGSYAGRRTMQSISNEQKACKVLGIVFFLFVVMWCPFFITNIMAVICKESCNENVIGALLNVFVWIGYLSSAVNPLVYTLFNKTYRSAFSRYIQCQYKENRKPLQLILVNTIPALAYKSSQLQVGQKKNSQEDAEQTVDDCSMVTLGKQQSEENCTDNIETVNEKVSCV

D(2) dopamine receptor = D(2) dopamine receptor (Homo sapiens, UniProt P14416); experiment: Binding affinity of compound was tested for Dopamine receptor D2L
D(2) dopamine receptor, sequence (P14416 whole entry): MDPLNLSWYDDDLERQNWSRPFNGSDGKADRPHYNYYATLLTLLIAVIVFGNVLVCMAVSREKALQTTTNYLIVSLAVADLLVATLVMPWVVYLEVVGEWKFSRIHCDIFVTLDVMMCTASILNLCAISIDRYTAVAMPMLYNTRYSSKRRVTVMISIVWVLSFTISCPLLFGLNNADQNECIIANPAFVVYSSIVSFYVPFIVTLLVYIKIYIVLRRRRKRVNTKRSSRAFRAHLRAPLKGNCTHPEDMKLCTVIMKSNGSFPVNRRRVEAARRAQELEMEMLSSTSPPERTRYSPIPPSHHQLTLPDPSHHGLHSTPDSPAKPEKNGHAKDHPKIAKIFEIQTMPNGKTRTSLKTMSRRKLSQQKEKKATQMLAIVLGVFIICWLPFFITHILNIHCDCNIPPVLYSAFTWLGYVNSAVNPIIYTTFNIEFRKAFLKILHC

D(4) dopamine receptor = molecular target: T2, D(4) dopamine receptor (Homo sapiens, UniProt P21917); experiment: Binding affinity of compound was tested for Dopamine receptor D4
T2 sequence (P21917 whole entry): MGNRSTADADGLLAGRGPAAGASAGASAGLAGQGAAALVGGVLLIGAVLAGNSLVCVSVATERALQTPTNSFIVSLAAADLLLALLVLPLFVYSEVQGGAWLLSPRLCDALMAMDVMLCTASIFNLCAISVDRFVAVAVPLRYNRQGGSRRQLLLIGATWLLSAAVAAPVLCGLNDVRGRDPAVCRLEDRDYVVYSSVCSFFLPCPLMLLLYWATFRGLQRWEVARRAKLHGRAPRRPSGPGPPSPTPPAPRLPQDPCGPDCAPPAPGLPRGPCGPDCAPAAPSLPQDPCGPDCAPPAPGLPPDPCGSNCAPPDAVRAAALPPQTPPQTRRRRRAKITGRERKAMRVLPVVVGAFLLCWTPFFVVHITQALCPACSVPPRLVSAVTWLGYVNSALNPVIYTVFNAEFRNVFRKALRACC

[6] = molecular target: T3, Adrenergic receptor alpha-1 (Rattus norvegicus, UniProt P15823+P23944+P43140); experiment: Binding affinity of compound was tested for Alpha-1 adrenergic receptor; format: protein assay
T3 sequence (P15823 whole entry): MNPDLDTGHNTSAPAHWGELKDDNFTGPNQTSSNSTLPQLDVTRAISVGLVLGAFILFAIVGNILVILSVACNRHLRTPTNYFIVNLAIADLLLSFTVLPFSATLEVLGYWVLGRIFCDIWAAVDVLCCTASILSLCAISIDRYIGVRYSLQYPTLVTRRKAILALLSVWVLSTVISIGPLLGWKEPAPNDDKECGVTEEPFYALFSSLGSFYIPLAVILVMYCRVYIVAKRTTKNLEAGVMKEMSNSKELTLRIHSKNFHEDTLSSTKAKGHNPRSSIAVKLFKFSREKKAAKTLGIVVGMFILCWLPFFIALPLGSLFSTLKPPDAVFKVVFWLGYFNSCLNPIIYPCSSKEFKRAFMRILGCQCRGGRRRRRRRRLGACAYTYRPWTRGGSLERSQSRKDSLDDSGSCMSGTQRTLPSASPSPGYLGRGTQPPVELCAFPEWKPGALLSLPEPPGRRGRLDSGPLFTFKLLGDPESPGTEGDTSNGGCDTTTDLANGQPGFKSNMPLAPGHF
T3 sequence (P23944 whole entry): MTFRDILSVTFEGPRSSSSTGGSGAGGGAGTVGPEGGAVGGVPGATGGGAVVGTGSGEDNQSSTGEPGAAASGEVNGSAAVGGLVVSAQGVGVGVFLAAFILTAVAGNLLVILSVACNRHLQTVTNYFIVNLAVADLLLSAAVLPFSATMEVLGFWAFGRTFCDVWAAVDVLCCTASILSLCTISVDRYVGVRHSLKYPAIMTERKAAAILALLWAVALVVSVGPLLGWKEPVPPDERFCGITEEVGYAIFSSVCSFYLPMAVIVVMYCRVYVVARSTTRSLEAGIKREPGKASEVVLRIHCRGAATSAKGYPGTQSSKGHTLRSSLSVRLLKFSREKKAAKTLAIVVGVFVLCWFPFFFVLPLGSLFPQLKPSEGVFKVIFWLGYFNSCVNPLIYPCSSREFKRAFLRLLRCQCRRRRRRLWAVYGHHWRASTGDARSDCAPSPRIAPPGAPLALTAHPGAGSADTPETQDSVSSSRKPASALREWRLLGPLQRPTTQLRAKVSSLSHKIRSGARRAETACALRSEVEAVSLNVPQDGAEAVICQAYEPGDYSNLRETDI
T3 sequence (P43140 whole entry): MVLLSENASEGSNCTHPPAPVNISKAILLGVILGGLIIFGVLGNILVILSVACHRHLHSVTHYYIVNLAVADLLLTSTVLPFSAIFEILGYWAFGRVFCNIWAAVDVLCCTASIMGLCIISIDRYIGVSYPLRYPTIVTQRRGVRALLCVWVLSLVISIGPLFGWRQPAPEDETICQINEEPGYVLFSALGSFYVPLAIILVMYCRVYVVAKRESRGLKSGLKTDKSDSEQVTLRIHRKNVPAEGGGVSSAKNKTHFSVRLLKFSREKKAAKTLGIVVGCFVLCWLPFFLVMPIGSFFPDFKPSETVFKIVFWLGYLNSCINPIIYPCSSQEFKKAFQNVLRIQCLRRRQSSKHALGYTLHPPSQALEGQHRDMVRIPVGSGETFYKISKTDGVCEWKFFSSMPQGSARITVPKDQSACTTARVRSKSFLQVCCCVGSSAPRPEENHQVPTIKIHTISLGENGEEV

D(3) dopamine receptor = D(3) dopamine receptor (Rattus norvegicus, UniProt P19020); experiment: Binding affinity of compound was tested for Dopamine receptor D3
D(3) dopamine receptor, sequence (P19020 whole entry): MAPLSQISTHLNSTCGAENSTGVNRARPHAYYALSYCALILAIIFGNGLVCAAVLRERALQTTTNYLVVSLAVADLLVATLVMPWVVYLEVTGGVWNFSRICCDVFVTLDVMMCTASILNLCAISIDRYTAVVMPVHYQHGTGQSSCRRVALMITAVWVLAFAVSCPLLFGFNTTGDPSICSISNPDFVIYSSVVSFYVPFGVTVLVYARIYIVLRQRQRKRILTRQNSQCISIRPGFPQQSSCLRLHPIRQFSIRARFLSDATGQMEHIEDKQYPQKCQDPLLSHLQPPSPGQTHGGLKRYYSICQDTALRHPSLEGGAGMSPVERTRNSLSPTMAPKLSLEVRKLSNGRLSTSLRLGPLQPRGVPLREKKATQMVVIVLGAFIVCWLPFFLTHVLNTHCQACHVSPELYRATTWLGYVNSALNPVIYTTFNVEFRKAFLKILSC

[7] = tested on: 5-hydroxytryptamine receptor 7 (Cavia porcellus); experiment: Maximal relaxation effect induced by 3 uM compound on substance P stimulated guinea pig ileum with 5-hydroxytryptamine 7 receptor nondesensitization
[8] = molecular target: 5-hydroxytryptamine receptor 7 (Rattus norvegicus) (UniProt P32305); conditions: Ileum; remark: listed apart in the source

5-hydroxytryptamine receptor 7, sequence (P32305 whole entry): as the sequence (P32305 whole entry) above

Structure (SMILES) | Ki [1] [nM] | Ki [2] [nM] | also measured
O=C(CCCCN1CCN(c2noc3ccccc23)CC1)c1ccccc1O | 52 | 919 | 
CN1CCN(CCCCCC(=O)c2ccccc2O)CC1 | > 1000 | > 850 | 
NCCc1c[nH]c2ccc(C(N)=O)cc12 | 0.51 |  | Relaxation [3]: inactive
COc1ccc2onc(N3CCN(CCCCCC(=O)c4ccccc4O)CC3)c2c1 | 462 | 389 | 
O=C(CCCCCN1CCN(c2noc3ccccc23)CC1)c1ccccc1O | 2.93 | 189 | Relaxation [4]: inactive; Ki [5]: 7.97 nM; Ki (D(2) dopamine receptor): 246 nM; Ki (D(4) dopamine receptor): 318 nM; Ki [6]: 96 nM; Ki (D(3) dopamine receptor): 361 nM; Relaxation [7]: 43%
O=C(CCCN1CCN(c2noc3ccccc23)CC1)c1ccccc1O | 19.5 | 1060 | 
O=C(CCCCCN1CCN(c2ccccc2)CC1)c1ccccc1O | 43 | 137 | 
O=C(CCCCCN1CCN(C2CCCCC2)CC1)c1ccccc1O | > 800 | > 850 | 
O=C(CCCCCN1CCN(c2nc3ccccc3o2)CC1)c1ccccc1O | 148 | 1460 | 
O=C(CCCCCN1CCN(c2ccccn2)CC1)c1ccccc1O | 105 | 56 | 
COc1ccccc1C(=O)CCCCCN1CCN(c2noc3ccccc23)CC1 | 0.9 | 175 | Ki [5]: 9.03 nM; Ki (D(2) dopamine receptor): 78.1 nM; Ki (D(4) dopamine receptor): 3.94 nM; Ki [6]: 0.41 nM; Ki (D(3) dopamine receptor): 54.9 nM; Relaxation [8]: inactive
O=C(CCCCCN1CCN(c2nc3ccccc3[nH]2)CC1)c1ccccc1O | 682 | > 850 | 
O=C(CCCCCN1CCN(c2cccc(C(F)(F)F)c2)CC1)c1ccccc1O | 384 | 282 | 

Second part, led by results:

Ki [1] [nM] | Ki [2] [nM] | Structure (SMILES) | also measured
59.1 | 20 | COc1ccccc1N1CCN(CCCCC(=O)c2ccc(O)cc2)CC1 | 
28.4 | 6.4 | COc1ccccc1N1CCN(CCCCCC(=O)c2ccccc2)CC1 | 
15 | 3.7 | COc1ccccc1N1CCN(CCCCC(=O)c2cccc(O)c2)CC1 | 
43.5 | 7 | COc1ccccc1N1CCN(CCCCC(=O)c2ccccc2)CC1 | 
85 | 3.4 | COc1cccc(C(=O)CCCCN2CCN(c3ccccc3OC)CC2)c1 | 
5.8 | 5.8 | COc1ccccc1N1CCN(CCCCCC(=O)c2ccccc2O)CC1 | 
46 | 3.4 | COc1cccc(C(=O)CCCCCN2CCN(c3ccccc3OC)CC2)c1 | 
109 | 0.78 | COc1cccc(C(=O)CCCN2CCN(c3ccccc3OC)CC2)c1 | 
16.4 | 4.1 | COc1ccccc1N1CCN(CCCCC(=O)c2ccccc2O)CC1 | 
23.7 | 14 | COc1ccccc1N1CCN(CCCCCC(=O)c2ccc(O)cc2)CC1 | 
26.8 | 24 | COc1ccccc1N1CCN(CCCCCC(=O)c2cccc(O)c2)CC1 | 

Source: ChEMBL document CHEMBL1145970 (J Med Chem, 2003)
